According to patent publication US20210045385A1, “PYRIDAZINONE-SUBSTITUTED KETOXIMES AS HERBICIDES” (FMC Corporation, priority 2018, published 2021):

Columns and labels:
Format in all cases: in vivo
[1] = tested on: foxtail, giant (giant foxtail, Setaria faberii); assay: Test A preemergence, visual plant response rating; conditions: for Foxtail, Giant plant response rating: 125 g ai/ha, preemergence, 0 to 100 scale, 0 no effect, 100 complete control; for Foxtail, Giant plant response rating (0 to 100 scale): 500 g ai/ha Preemergence, approx. 10 days
From the text: (§1) Seeds of plant species selected from barnyardgrass (Echinochloa crus-galli), kochia (Kochia scoparia), ragweed (common ragweed, Ambrosia elatior), Italian ryegrass (Lolium multiflorum), foxtail, giant (giant foxtail, Setaria faberii), foxtail, green (green foxtail, Setaria viridis), and pigweed (Amaranthus retroflexus) were planted into a blend of loam soil and sand and treated preemergence with a directed soil spray using test chemicals formulated in a non-phytotoxic solvent mixture which included a surfactant.
(§2) At the same time, plants selected from these weed species and also wheat (Triticum aestivum), corn (Zea mays), blackgrass (Alopecurus myosuroides), and galium (catchweed bedstraw, Galium aparine) were planted in pots containing the same blend of loam soil and sand and treated with postemergence applications of test chemicals formulated in the same manner. Plants ranged in height from 2 to 10 cm and were in the one- to two-leaf stage for the postemergence treatment. Treated plants and untreated controls were maintained in a greenhouse for approximately 10 days, after which time all treated plants were compared to untreated controls and visually evaluated for injury. Plant response ratings, summarized in Table A, are based on a 0 to 100 scale where 0 is no effect and 100 is complete control. A dash (-) response means no test result.

[2] = tested on: pigweed (Amaranthus retroflexus); assay: Test A preemergence, visual plant response rating; conditions: for Pigweed plant response rating: 125 g ai/ha, preemergence, 0 to 100 scale, 0 no effect, 100 complete control; for Pigweed plant response rating (0 to 100 scale): 500 g ai/ha Preemergence, approx. 10 days
From the text: as §1, §2

kochia (Kochia scoparia) [3] = assay: Test A preemergence, visual plant response rating; conditions: for Kochia plant response rating: 125 g ai/ha, preemergence, 0 to 100 scale, 0 no effect, 100 complete control; for Kochia plant response rating (0 to 100 scale): 500 g ai/ha Preemergence, approx. 10 days
From the text: as §1, §2

[4] = tested on: barnyardgrass (Echinochloa crus-galli); assay: Test A preemergence, visual plant response rating; conditions: for Barnyardgrass plant response rating: 125 g ai/ha, preemergence, 0 to 100 scale, 0 no effect, 100 complete control; for Barnyardgrass plant response rating (0 to 100 scale): 500 g ai/ha Preemergence, approx. 10 days
From the text: as §1, §2

[5] = tested on: Italian ryegrass (Lolium multiflorum); assay: Test A preemergence, visual plant response rating; conditions: for Ryegrass, Italian plant response rating: 125 g ai/ha, preemergence, 0 to 100 scale, 0 no effect, 100 complete control; for Ryegrass, Italian plant response rating (0 to 100 scale): 500 g ai/ha Preemergence, approx. 10 days
From the text: as §1, §2

[6] = tested on: ducksalad (Heteranhera limosa); assay: Test B flooded paddy test, visual plant response rating; conditions: 250 g ai/ha, Flood, applied to paddy water, 2-leaf stage, evaluated after 13 to 15 days
Description: (§3) Plant species in the flooded paddy test selected from rice (Oryza sativa), sedge, umbrella (small-flower umbrella sedge, Cyperus difformis), ducksalad (Heteranhera limosa), and barnyardgrass (Echinochloa crus-galli) were grown to the 2-leaf stage for testing. At time of treatment, test pots were flooded to 3 cm above the soil surface treated by application of test compounds directly to the paddy water, and then maintained at that water depth for the duration of the test. Treated plants and controls were maintained in a greenhouse for 13 to 15 days, after which time all species were compared to controls and visually evaluated. […] A dash (-) response means no test result.

[7] = tested on: sedge, umbrella (small-flower umbrella sedge, Cyperus difformis); assay: as above; conditions: 250 g ai/ha, Flood, applied to paddy water, 2-leaf stage, evaluated after 13 to 15 days
Description: as §3

rice (Oryza sativa) = assay: as above; conditions: 250 g ai/ha, Flood, applied to paddy water, 2-leaf stage, evaluated after 13 to 15 days
Description: as §3

[8] = tested on: barnyardgrass (Echinochloa crus-galli); assay: as above; conditions: 250 g ai/ha, Flood, applied to paddy water, 2-leaf stage, evaluated after 13 to 15 days
Description: as §3

[9] = tested on: blackgrass (Alopecurus myosuroides); assay: Test A postemergence, visual plant response rating; conditions: for Blackgrass plant response rating (0 to 100 scale): 500 g ai/ha, postemergence, 0 is no effect, 100 is complete control; for Blackgrass plant response rating: Postemergence, 125 g ai/ha, 0 to 100 scale (0 no effect, 100 complete control)
From the text: as §1, §2

[10] = tested on: ragweed (common ragweed, Ambrosia elatior); assay: Test A postemergence, visual plant response rating; conditions: for Ragweed plant response rating (0 to 100 scale): 500 g ai/ha, postemergence, 0 is no effect, 100 is complete control; for Ragweed plant response rating: Postemergence, 125 g ai/ha, 0 to 100 scale (0 no effect, 100 complete control)
From the text: as §1, §2

[11] = tested on: foxtail, giant (giant foxtail, Setaria faberii); assay: Test A postemergence, visual plant response rating; conditions: for Foxtail, Giant plant response rating (0 to 100 scale): 500 g ai/ha, postemergence, 0 is no effect, 100 is complete control; for Foxtail, Giant plant response rating: Postemergence, 125 g ai/ha, 0 to 100 scale (0 no effect, 100 complete control)
From the text: as §1, §2

[12] = tested on: wheat (Triticum aestivum); assay: Test A postemergence, visual plant response rating; conditions: for Wheat plant response rating (0 to 100 scale): 500 g ai/ha, postemergence, 0 is no effect, 100 is complete control; for Wheat plant response rating: Postemergence, 125 g ai/ha, 0 to 100 scale (0 no effect, 100 complete control)
From the text: as §1, §2

corn (Zea mays) = assay: Test A postemergence, visual plant response rating; conditions: for Corn plant response rating (0 to 100 scale): 500 g ai/ha, postemergence, 0 is no effect, 100 is complete control; for Corn plant response rating: Postemergence, 125 g ai/ha, 0 to 100 scale (0 no effect, 100 complete control)
From the text: as §1, §2

[13] = tested on: pigweed (Amaranthus retroflexus); assay: Test A postemergence, visual plant response rating; conditions: for Pigweed plant response rating (0 to 100 scale): 500 g ai/ha, postemergence, 0 is no effect, 100 is complete control; for Pigweed plant response rating: Postemergence, 125 g ai/ha, 0 to 100 scale (0 no effect, 100 complete control)
From the text: as §1, §2

kochia (Kochia scoparia) [14] = assay: Test A postemergence, visual plant response rating; conditions: for Kochia plant response rating (0 to 100 scale): 500 g ai/ha, postemergence, 0 is no effect, 100 is complete control; for Kochia plant response rating: Postemergence, 125 g ai/ha, 0 to 100 scale (0 no effect, 100 complete control)
From the text: as §1, §2

[15] = tested on: barnyardgrass (Echinochloa crus-galli); assay: Test A postemergence, visual plant response rating; conditions: for Barnyardgrass plant response rating (0 to 100 scale): 500 g ai/ha, postemergence, 0 is no effect, 100 is complete control; for Barnyardgrass plant response rating: Postemergence, 125 g ai/ha, 0 to 100 scale (0 no effect, 100 complete control)
From the text: as §1, §2

[16] = tested on: galium (catchweed bedstraw, Galium aparine); assay: Test A postemergence, visual plant response rating; conditions: for Galium plant response rating (0 to 100 scale): 500 g ai/ha, postemergence, 0 is no effect, 100 is complete control; for Galium plant response rating: Postemergence, 125 g ai/ha, 0 to 100 scale (0 no effect, 100 complete control)
From the text: as §1, §2

[17] = tested on: Italian ryegrass (Lolium multiflorum); assay: Test A postemergence, visual plant response rating; conditions: for Ryegrass, Italian plant response rating (0 to 100 scale): 500 g ai/ha, postemergence, 0 is no effect, 100 is complete control; for Ryegrass, Italian plant response rating: Postemergence, 125 g ai/ha, 0 to 100 scale (0 no effect, 100 complete control)
From the text: as §1, §2

Row | SMILES | Foxtail, Giant plant response rating [1] | Foxtail, Giant plant response rating (0 to 100 scale) [1] | Pigweed plant response rating [2] | Pigweed plant response rating (0 to 100 scale) [2] | Kochia plant response rating (kochia (Kochia scoparia) [3]) | Kochia plant response rating (0 to 100 scale) (kochia (Kochia scoparia) [3]) | Barnyardgrass plant response rating [4] | Barnyardgrass plant response rating (0 to 100 scale) [4] | Ryegrass, Italian plant response rating [5] | Ryegrass, Italian plant response rating (0 to 100 scale) [5] | Plant response rating, Ducksalad (0 to 100 scale, 0 is no effect, 100 is complete control) [6] | Plant response rating, Sedge, Umbrella (0 to 100 scale, 0 is no effect, 100 is complete control) [7] | Plant response rating, Rice (0 to 100 scale, 0 is no effect, 100 is complete control) (rice (Oryza sativa)) | Plant response rating, Barnyardgrass (0 to 100 scale, 0 is no effect, 100 is complete control) [8] | Blackgrass plant response rating (0 to 100 scale) [9] | Blackgrass plant response rating [9] | Ragweed plant response rating (0 to 100 scale) [10] | Ragweed plant response rating [10] | Foxtail, Giant plant response rating (0 to 100 scale) [11] | Foxtail, Giant plant response rating [11] | further results
1 | Cc1nn(C)c(=O)c(/C(=N/OC(C)C)c2ccc(F)c3ccccc23)c1O [Compound 88] | 90 | 100 | 100 | 100 | 10 | 90 | 70 | 90 | 90 | 100 | 0 | 0 | 0 | 0 | 90 | 80 | 90 | 100 | 90 | 80 | Wheat plant response rating (0 to 100 scale) [12]: 50; Wheat plant response rating [12]: 10; Corn plant response rating (0 to 100 scale) (corn (Zea mays)): 30; Corn plant response rating (corn (Zea mays)): 10; Pigweed plant response rating (0 to 100 scale) [13]: 100; Pigweed plant response rating [13]: 90; Kochia plant response rating (0 to 100 scale) (kochia (Kochia scoparia) [14]): 70; Kochia plant response rating (kochia (Kochia scoparia) [14]): 60; Barnyardgrass plant response rating (0 to 100 scale) [15]: 80; Barnyardgrass plant response rating [15]: 50; Galium plant response rating (0 to 100 scale) [16]: 90; Galium plant response rating [16]: 90; Ryegrass, Italian plant response rating (0 to 100 scale) [17]: 100; Ryegrass, Italian plant response rating [17]: 100
2 | Cc1nn(C)c(=O)c(/C(=N\OC(C)C)c2ccc(F)c3ccccc23)c1O [Compound 89] | 90 | 100 | 100 | 100 | 60 | 90 | 70 | 100 | 90 | 100 | 0 | 0 | 0 | 0 | 100 | 90 | 90 | 90 | 80 | 70 | Wheat plant response rating (0 to 100 scale) [12]: 70; Wheat plant response rating [12]: 50; Corn plant response rating (0 to 100 scale) (corn (Zea mays)): 30; Corn plant response rating (corn (Zea mays)): 20; Pigweed plant response rating (0 to 100 scale) [13]: 100; Pigweed plant response rating [13]: 80; Kochia plant response rating (0 to 100 scale) (kochia (Kochia scoparia) [14]): 80; Kochia plant response rating (kochia (Kochia scoparia) [14]): 70; Barnyardgrass plant response rating (0 to 100 scale) [15]: 60; Barnyardgrass plant response rating [15]: 40; Galium plant response rating (0 to 100 scale) [16]: 90; Galium plant response rating [16]: 90; Ryegrass, Italian plant response rating (0 to 100 scale) [17]: 100; Ryegrass, Italian plant response rating [17]: 100
3 | CON=C(c1cc(Cl)ccc1Cl)c1c(O)c(C)nn(C)c1=O [Compound 90] | 50 | 90 | 90 | 100 | 50 | 70 | 60 | 80 | 60 | 90 | 0 | 0 | 0 | 0 | 90 | 80 | 90 | 70 | 80 | 30 | Wheat plant response rating (0 to 100 scale) [12]: 40; Wheat plant response rating [12]: 30; Corn plant response rating (0 to 100 scale) (corn (Zea mays)): 30; Corn plant response rating (corn (Zea mays)): 20; Pigweed plant response rating (0 to 100 scale) [13]: 90; Pigweed plant response rating [13]: 60; Kochia plant response rating (0 to 100 scale) (kochia (Kochia scoparia) [14]): 80; Kochia plant response rating (kochia (Kochia scoparia) [14]): 60; Barnyardgrass plant response rating (0 to 100 scale) [15]: 60; Barnyardgrass plant response rating [15]: 20; Galium plant response rating (0 to 100 scale) [16]: 90; Galium plant response rating [16]: 90; Ryegrass, Italian plant response rating (0 to 100 scale) [17]: 90; Ryegrass, Italian plant response rating [17]: 80
4 | CON=C(c1cc(Cl)ccc1Cl)c1c(O)c(C)nn(C)c1=O [Compound 98] | 60 | 70 | 90 | 100 | 60 | 60 | 50 | 60 | 80 | 90 | 0 | 0 | 0 | 0 | 90 | 80 | 90 | 80 | 80 | 40 | Wheat plant response rating (0 to 100 scale) [12]: 20; Wheat plant response rating [12]: 0; Corn plant response rating (0 to 100 scale) (corn (Zea mays)): 20; Corn plant response rating (corn (Zea mays)): 0; Pigweed plant response rating (0 to 100 scale) [13]: 80; Pigweed plant response rating [13]: 70; Kochia plant response rating (0 to 100 scale) (kochia (Kochia scoparia) [14]): 80; Kochia plant response rating (kochia (Kochia scoparia) [14]): 60; Barnyardgrass plant response rating (0 to 100 scale) [15]: 80; Barnyardgrass plant response rating [15]: 50; Galium plant response rating (0 to 100 scale) [16]: 100; Galium plant response rating [16]: 80; Ryegrass, Italian plant response rating (0 to 100 scale) [17]: 80; Ryegrass, Italian plant response rating [17]: 80
